We go through seven compounds from PMC10424179, “Disrupting Kaposi’s Sarcoma-Associated Herpesvirus (KSHV) Latent Replication with a Small Molecule Inhibitor” (Journal of Medicinal Chemistry, 2023).

In data set [1] the target is T1, oligomerization-deficient mutant of a LANA C-terminal protein fragment (aa 1008–1146) (Human herpesvirus 8 (Kaposi's sarcoma-associated herpesvirus), UniProt Q76SB0).
T1 sequence (Q76SB0 1008-1146): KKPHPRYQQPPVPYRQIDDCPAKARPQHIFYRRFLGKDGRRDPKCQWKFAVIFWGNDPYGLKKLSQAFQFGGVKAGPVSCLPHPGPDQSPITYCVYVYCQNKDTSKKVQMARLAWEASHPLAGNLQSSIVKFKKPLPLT
Description: Microscale thermophoresis (MST) binding assay. Also noted: species or system Kaposi's sarcoma-associated herpesvirus (KSHV). The settings on record: read-out: KD value (MST); LANA aa 1008–1146 mutant; means of at least three replicates. The source says: (§1) In these assays, an oligomerization-deficient mutant of a LANA C-terminal protein fragment (aa 1008–1146) and an oligonucleotide representing LANA-binding site (LBS) 1 were used, which are convenient to use and handle for the described biophysical methods, while maintaining the essential DNA-binding interface.[25]
Equation y = A2 + (A1-A2)/(1 + (x/x0)^p)
1.3 Microscale Thermophoresis (MST) Assay
Microscale Thermophoresis Assay was done as mentioned in a previous publication. 2

The target of data set [2] is LANA–DNA interaction (oligomerization-deficient LANA DBD aa 1008–1146 mutant / LBS1) (Human herpesvirus 8 (Kaposi's sarcoma-associated herpesvirus), UniProt Q76SB0). Description: Electrophoretic mobility shift assay (EMSA), LANA DBD mutant with LBS1 oligonucleotide. It is filed as biochemical, Kaposi's sarcoma-associated herpesvirus (KSHV). The settings on record: compound at 250 μM; LBS1 oligonucleotide; LANA aa 1008–1146 mutant. On the procedure:
as §1
Equation y = A2 + (A1-A2)/(1 + (x/x0)^p) […]
1.4 Electrophoretic Mobility Shift Assay (EMSA)
The EMSA was carried out with slight modific ations as described previously 2 based on the assay in Hellert et al. (2013). 3 His-tagged oligomerization-deficient LANA DBD (aa1008-1146) mutant protein or LANA DBD (aa934-1162) wild type protein (200 nM final) was incubated with a 5´-Dy682-labeled double stranded DNA probe (IBA Lifesciences) (20 nM final) for 30 minutes at RT in the dark. The reaction buffer consisted of 30 mM Tris HCl pH 7.5, 50 mM KCl, 10 mM MgCl2, 1 mM DTT, 1 mM EDTA, 10% glycerol, 0.25% Tween20, 0.5 mg/mL BSA and 0.05 mg/mL poly(dI-dC). […]
dark. 10 µL of the reaction was run on a pre -run native 5% acrylamide gel for 45 minutes at 100V with tris-borate-EDTA buffer. Images of the gels were acquired and analysed with the Odyssey (Licor) using the Image Studio software.
Fig S2: Gels of EMSA experiments at 250 μM for all compounds (A) and dose-dependent curves for compound 20 using LANA DBD mutant (B) and LANA wildtype (C) as well as LBS1. Values are means […]
Gleichung y = A2 + (A1-A2)/(1 + (x/x0)^p) […]

The nature of a further data set: Kinetic solubility. It is filed as physicochemical. The settings on record: PBS with 1% DMSO; 1% DMSO in PBS, pH 7.4. The protocol: (§2) The next step was an in vitro ADMET profiling of the best seven compounds so far: 9, 11, 14, 19, 20, 21, and 27. The compounds were tested for their kinetic solubility (1% DMSO in PBS, pH 7.4), lipophilicity (chromatographic Log D7.4 value), cellular permeability (using Caco-2 cells), and metabolic stability (using mouse and human liver S9 fractions) (see Table 3).
The desired compounds were sequentially diluted in DMSO in a 96-well plate. 1.5 µL of each well were transferred into another 96-well plate and mixed with 148.5 µL of PBS. Plates were shaken for 5 min at 600 rpm at room temperature (r.t.), and the absorbance at 620 nm was measured. Absorbance values were normalized by blank subtraction and plotted using GraphPad Prism 8.4.2 (GraphPad Software, San Diego, CA, USA). Solubility (S) was determined based on the First X value of AUC function using a threshold of 0.005. […]

A short description of another data set: Chromatographic LogD7.4. In kind it is physicochemical. The settings on record: reversed-phase HPLC, NUCLEODUR C18 Pyramid column; pH 7.4, HPLC-MS based; read-out: Chrom. LogD7.4. On the procedure:
(§3) The next step was an in vitro ADMET profiling of the best seven compounds so far: 9, 11, 14, 19, 20, 21, and 27. The compounds were tested for their kinetic solubility (1% DMSO in PBS, pH 7.4), lipophilicity (chromatographic Log D7.4 value), cellular permeability (using Caco-2 cells), and metabolic stability (using mouse and human liver S9 fractions) (see Table 3). […]
LogD7.4 was analyzed using an HPLC−MS based method. The retention time of 12 compounds with known LogD7.4 was determined and plotted toward their LogD7.4. Linear regression was used to determine the LogD7.4 of unknown compounds. Analysis was performed using a Dionex Ultimate 3000 HPLC system coupled to a TSQ Quantum Access MAX (Thermo Fisher, Dreieich, Germany) with the following conditions: EC150/2 NUCLEODUR C18 Pyramid column, 5 μM (Macherey Nagel, Düren, Germany); eluent A: 50 mM NH4OAc pH 7.4, eluent B: acetonitrile, and flow: 0.6 mL/min. The gradient was set to 0−100% B from 0 to 2.5 min, […]
are means of two replicates. […]

The nature of a further data set: Caco-2 cell permeability. In kind it is in vitro ADME. The settings on record: human, pH 7.4, Caco-2 monolayer, apical to basolateral. The protocol:
as §2
MTT Assay: Viability of HEK293 cells ~48 hours after treatment […]
Fig S4: MTT assay for compounds 11, 14, 19, 20 and 21 using HEK293 cells. Values are means of […]
Permeability of the compounds was assessed using Caco2 monolayers grown on Transwell® (3460 Costar, Corning). In brief, cells were seeded 60.000 cells/well in 12-well Transwell plates in DMEM medium supplemented with 10% FCS and 1% NEAA. Cells were grown for 7 to 9 days with medium replacement every other day until they reached a tight monolayer. Tightness was defined as transepithelial resistance (TEER) values >300 Ω/cm² (measured using an EVOM Volt-Ohmmeter, World Precision Instruments). At the day of permeability as say, the compound stock solutions in DMSO were diluted to 10µM in Krebs -Ringer-buffer (KRB, pH 7.4). Cells treated with KRB only served as control. Monolayer was washed two times with prewarmed KRB and incubated with 500 µl sample on the apical compartment. Samples from the basolateral side were drawn at t = 0, 15, 30, 60, 120, 180 and 300 min and replaced with fresh buffer. The plates were incubated for 5 h in a cell culture incubator with lateral shaking (200 rpm). TEER values were measured again at the end of the permeability test. Compound concentration was determined with HPLC-ESI-MS/MS in SRM mode and calculated for the cumulative transport. Values are means of three replicates.
(In general: Caco-2 cells form a polarised layer with tight junctions and transporters.)

A short description of data set [3]: Metabolic stability in mouse liver S9 fraction. In kind it is in vitro ADME. To be noted: pooled liver S9 fraction, mouse liver S9, 1 μM compound; for microsomal CLint at 1 µM: read-out: MetStab Mouse Liver S9 Clint; for half-life at 1 µM: read-out: MetStab Mouse Liver S9 t1/2. On the procedure: as §3
(§4) 1.7 Metabolic Stability in Liver S9 Fractions
(§5) For the evaluation of combined phase I and phase II metabolic stability, the compound (1 μM) was incubated with 1 mg/mL pooled mouse liver S9 fraction (Xenotech, Kansas City, USA) or human liver S9 fraction (Corning, USA), 2 mM NADPH, 1 mM UDPGA, 10 mM MgCl 2, 5 mM GSH and 0.1 mM PAPS at 37 °C for 240 min. The metabolic stability of testosterone, verapamil and ketoconazole were determined in parallel to confirm the enzymatic activity of mouse S9 fractions, for human S9 testosterone, diclofenac and propranolol were used. The incubation was stopped after defined time points by precipitation of aliquots of S9 enzymes with 2 volumes of cold acetonitrile containing internal standard (150 nM diphenhydramine). Samples were stored on ice until the end of the incubation and precipitated protein was removed by centrifugation (15 min, 4 °C, 4,000 g). Concentration of the remaining test compound at the different time points was analyzed by HPLC-MS/MS (TSQ Quantum Access MAX, Thermo Fisher, Dreieich, Germany) and used to determine half -life (t1/2). Values are means of three

Data set [4] can be described thus: Metabolic stability in human liver S9 fraction. It is filed as in vitro ADME. The settings on record: human liver S9, 1 μM compound; for microsomal CLint at 1 µM: read-out: MetStab Human Liver S9 Clint; for half-life at 1 µM: read-out: MetStab Human Liver S9 t1/2. On the procedure: as §3, §4, §5
Another data set deals with LANA. Also noted: method as in PMID 30888817. To be noted: cited from earlier work.

In general, Kd refers to the equilibrium constant for the complex coming apart. For orientation: solubility (kinetic) means the concentration staying in solution when a stock, usually in DMSO, is diluted into the medium. As a reminder, the Papp A→B is the apparent permeability from the apical to the basolateral side of a cell layer. A high value points to fast passage.

≈ marks a conversion by molar mass, not a printed value.

In the case of `COc1cncc(-c2cc(C)c(-n3cc(-c4ccc(C(=O)O)cc4)nn3)cn2)c1` [Compound 9], the Kd in data set [1] is 11 ± 1.9 µM. Moreover, in data set [2], the “Inhibition (EMSA, LBS1) @250 μM” value came to 97%. Moreover, in “Kinetic solubility”, the kinetic solubility at 5 min amounted to 139 ± 18 µM (≈ 53.8 µg/mL). The chromatographic logD in the data set “Chromatographic LogD7.4” was -0.36. The same compound gave a Papp A→B at 5 h, 10 µM in “Caco-2 cell permeability” of 2 ± 0.5 ×10⁻⁶ cm/s. Further, the microsomal CLint at 1 µM in data set [3] and in data set [4] was under 5.8 µL/min/mg each time. The half-life at 1 µM in data set [3] and in data set [4] was over 2 h throughout.

Take `COc1ncc(C)cc1-c1cc(C)c(-n2cc(-c3ccc(C(=O)O)cc3)nn2)cn1` [Compound 11]: in data set [1], the Kd was 18.8 ± 2.1 µM. Also, the “Inhibition (EMSA, LBS1) @250 μM” value in data set [2] came out at 96%. Also, the kinetic solubility at 5 min in “Kinetic solubility” is over 200 µM. Also, in the data set “Chromatographic LogD7.4”, the chromatographic logD came out at 0.42. For the same compound, the Papp A→B at 5 h, 10 µM in “Caco-2 cell permeability” was determined as 9.6 ± 1.4 ×10⁻⁶ cm/s. Besides, in data set [3], the microsomal CLint at 1 µM was under 5.8 µL/min/mg and the half-life at 1 µM is over 2 h. Also, in data set [4], the microsomal CLint at 1 µM is under 5.8 µL/min/mg and the half-life at 1 µM is over 2 h.

Consider `COc1ccc(-c2cc(C)c(-n3cc(-c4ccc(C(=O)O)cc4)nn3)cn2)cc1` [Compound 19], for which the Kd in data set [1] was found to be 5.4 ± 1.8 µM. The “Inhibition (EMSA, LBS1) @250 μM” value in data set [2] was 69%. The compound further returned a kinetic solubility at 5 min in the data set “Kinetic solubility” of over 200 µM. In “Chromatographic LogD7.4”, the chromatographic logD is 0.46. Further, the Papp A→B at 5 h, 10 µM in the data set “Caco-2 cell permeability” stood at 16.5 ± 4.7 ×10⁻⁶ cm/s. The microsomal CLint at 1 µM in data set [3] and in data set [4] was under 5.8 µL/min/mg each time. Also, the half-life at 1 µM in data set [3] and in data set [4] was over 2 h in each case.

On to `O=C(O)c1ccc(-c2cn(-c3cccnc3)nn2)cc1` [hit I], for which the Kd on LANA is 23 µM.

On to `Cc1cc(-c2ccccc2O)ncc1-n1cc(-c2ccc(C(=O)O)cc2)nn1` [Compound 21], for which the Kd in data set [1] came out at 18.8 ± 2.2 µM. Also, the “Inhibition (EMSA, LBS1) @250 μM” value in data set [2] came out at 94%. The solubility (kinetic) at 5 min in “Kinetic solubility” came to 137 ± 20 µM (≈ 51 µg/mL). Besides, in “Chromatographic LogD7.4”, the chromatographic logD is 0.62. The compound further gave a Papp A→B at 5 h, 10 µM in the data set “Caco-2 cell permeability” of 8.8 ± 1.1 ×10⁻⁶ cm/s. Besides, in data set [3], the microsomal CLint at 1 µM was under 5.8 µL/min/mg and the half-life at 1 µM was over 2 h. Further, in data set [4], the microsomal CLint at 1 µM was under 5.8 µL/min/mg and the half-life at 1 µM was over 2 h.

With `Cc1cc(-c2ccc(C(=O)O)cc2)ncc1-n1cc(-c2ccc(C(=O)O)cc2)nn1` [Compound 27], the Kd in data set [1] came to 11.4 ± 3.6 µM. In addition, the “Inhibition (EMSA, LBS1) @250 μM” value in data set [2] is given as 98%. The compound also showed a solubility (kinetic) at 5 min in the data set “Kinetic solubility” of over 200 µM. The chromatographic logD in “Chromatographic LogD7.4” is -1.92. This compound also registered a Papp A→B at 5 h, 10 µM in the data set “Caco-2 cell permeability” of 0.5 ± 0.2 ×10⁻⁶ cm/s. In data set [3], the microsomal CLint at 1 µM was under 5.8 µL/min/mg and the half-life at 1 µM was over 2 h. Also, in data set [4], the microsomal CLint at 1 µM is under 5.8 µL/min/mg and the half-life at 1 µM is over 2 h.

On to `Cc1cc(-c2ccccc2Cl)ncc1-n1cc(-c2ccc(C(=O)O)cc2)nn1` [Compound 14], for which the Kd in data set [1] amounted to 4.2 ± 0.6 µM. Further, the “Inhibition (EMSA, LBS1) @250 μM” value in data set [2] was found to be 92%. In “Kinetic solubility”, this compound showed a solubility (kinetic) at 5 min of over 200 µM. Further, the chromatographic logD in the data set “Chromatographic LogD7.4” was 0.67. For the same compound, in the data set “Caco-2 cell permeability”, the Papp A→B at 5 h, 10 µM was 14.2 ± 1.8 ×10⁻⁶ cm/s. For the same compound, the microsomal CLint at 1 µM in data set [3] and in data set [4] was under 5.8 µL/min/mg in each case. Further, the half-life at 1 µM in data set [3] and in data set [4] was over 2 h in each case.
